This is an account of results in ChEMBL document CHEMBL3616405 (J Med Chem, 2015).

In assay [1] the target is T1, Glucagon-like peptide 1 receptor (Homo sapiens, UniProt P43220). Briefly: Agonist activity at human GLP1 receptor expressed in BHK cells after 3 hrs by CRE firefly luciferase reporter gene assay in absence of human serum albumin. Format: functional, cell-based.
For assay [2], the target named is T1, Glucagon-like peptide 1 receptor. The assay is described as follows: Displacement of [125I]-GLP1 from human GLP1 receptor expressed in BHK cells after 2 hrs in presence of 2% human serum albumin. Type of assay: cell-based.
The target is the same in assay [3]. Briefly: Displacement of [125I]-GLP1 from human GLP1 receptor expressed in BHK cells after 2 hrs in absence of human serum albumin. Format: cell-based.

T1 sequence (P43220 whole entry): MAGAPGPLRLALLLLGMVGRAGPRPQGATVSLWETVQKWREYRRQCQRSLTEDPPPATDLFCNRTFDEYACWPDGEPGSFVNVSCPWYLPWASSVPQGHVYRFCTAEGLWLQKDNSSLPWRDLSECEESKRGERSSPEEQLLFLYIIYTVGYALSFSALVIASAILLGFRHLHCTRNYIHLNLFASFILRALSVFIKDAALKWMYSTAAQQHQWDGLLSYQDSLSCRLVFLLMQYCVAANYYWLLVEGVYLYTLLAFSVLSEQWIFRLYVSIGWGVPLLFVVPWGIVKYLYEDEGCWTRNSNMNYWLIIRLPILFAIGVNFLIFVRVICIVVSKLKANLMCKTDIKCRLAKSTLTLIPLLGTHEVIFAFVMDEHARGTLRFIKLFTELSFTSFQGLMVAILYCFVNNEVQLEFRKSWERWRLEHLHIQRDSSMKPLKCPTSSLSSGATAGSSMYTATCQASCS

`CC[C@H](C)[C@H](NC(=O)[C@H](Cc1ccccc1)NC(=O)[C@H](CCC(=O)O)NC(=O)[C@H](CCCCN)NC(=O)[C@H](C)NC(=O)[C@H](C)NC(=O)[C@H](CCC(N)=O)NC(=O)[C@H](CCCCNC(=O)COCCOCCNC(=O)COCCOCCNC(=O)CC[C@H](NC(=O)CCCCCCCCCCCCCCCCC(=O)O)C(=O)O)NC(=O)[C@H](CCC(=O)O)NC(=O)[C@H](CC(C)C)NC(=O)[C@H](Cc1ccc(O)cc1)NC(=O)[C@H](CO)NC(=O)[C@H](CO)NC(=O)[C@@H](NC(=O)[C@H](CC(=O)O)NC(=O)[C@H](CO)NC(=O)[C@@H](NC(=O)[C@H](Cc1ccccc1)NC(=O)[C@@H](NC(=O)CNC(=O)[C@H](CCC(=O)O)NC(=O)C(C)(C)NC(=O)[C@@H](N)Cc1c[nH]cn1)[C@@H](C)O)[C@@H](C)O)C(C)C)C(=O)N[C@@H](C)C(=O)N[C@@H](Cc1c[nH]c2ccccc12)C(=O)N[C@@H](CC(C)C)C(=O)N[C@H](C(=O)N[C@@H](CCCCN)C(=O)NCC(=O)N[C@@H](CCCNC(=N)N)C(=O)NCC(=O)O)C(C)C` showed an EC50 in assay [1] of 2.7 pM. Moreover, the values for the IC50 in assay [2] and in assay [3] were 17.7 nM and 0.06 nM, respectively.
As for `CC[C@H](C)[C@H](NC(=O)[C@H](Cc1ccccc1)NC(=O)[C@H](CCC(=O)O)NC(=O)[C@H](CCCCNC(=O)COCCOCCNC(=O)COCCOCCNC(=O)CC[C@H](NC(=O)CCCCCCCCCCCCCCC(=O)O)C(=O)O)NC(=O)[C@H](C)NC(=O)[C@H](C)NC(=O)[C@H](CCC(N)=O)NC(=O)CNC(=O)[C@H](CCC(=O)O)NC(=O)[C@H](CC(C)C)NC(=O)[C@H](Cc1ccc(O)cc1)NC(=O)[C@H](CO)NC(=O)[C@H](CO)NC(=O)[C@@H](NC(=O)[C@H](CC(=O)O)NC(=O)[C@H](CO)NC(=O)[C@@H](NC(=O)[C@H](Cc1ccccc1)NC(=O)[C@@H](NC(=O)CNC(=O)[C@H](CCC(=O)O)NC(=O)C(C)(C)NC(=O)[C@@H](N)Cc1c[nH]cn1)[C@@H](C)O)[C@@H](C)O)C(C)C)C(=O)N[C@@H](C)C(=O)N[C@@H](Cc1c[nH]c2ccccc12)C(=O)N[C@@H](CC(C)C)C(=O)N[C@H](C(=O)N[C@@H](CCCNC(=N)N)C(=O)NCC(=O)N[C@@H](CCCNC(=N)N)C(=O)NCC(=O)O)C(C)C`, the EC50 in assay [1] was 8.6 pM. The figures for the IC50 in assay [2] and in assay [3] were 20.5 nM and 0.94 nM, respectively.
For `CC[C@H](C)[C@H](NC(=O)[C@H](Cc1ccccc1)NC(=O)[C@H](CCC(=O)O)NC(=O)[C@H](CCCNC(=N)N)NC(=O)[C@H](C)NC(=O)[C@H](C)NC(=O)[C@H](CCC(N)=O)NC(=O)CNC(=O)[C@H](CCC(=O)O)NC(=O)[C@H](CC(C)C)NC(=O)[C@H](Cc1ccc(O)cc1)NC(=O)[C@H](CO)NC(=O)[C@H](CO)NC(=O)[C@@H](NC(=O)[C@H](CC(=O)O)NC(=O)[C@H](CO)NC(=O)[C@@H](NC(=O)[C@H](Cc1ccccc1)NC(=O)[C@@H](NC(=O)CNC(=O)[C@H](CCC(=O)O)NC(=O)C(C)(C)NC(=O)[C@@H](N)Cc1c[nH]cn1)[C@@H](C)O)[C@@H](C)O)C(C)C)C(=O)N[C@@H](C)C(=O)N[C@@H](Cc1c[nH]c2ccccc12)C(=O)N[C@@H](CC(C)C)C(=O)N[C@H](C(=O)N[C@@H](CCCNC(=N)N)C(=O)NCC(=O)N[C@@H](CCCNC(=N)N)C(=O)NCC(=O)N[C@@H](CCCCNC(=O)CCCCCCCCCCCCCCCCC(=O)O)C(=O)O)C(C)C`, in assay [1], the EC50 was found to be 87.3 pM. Further, the IC50 in assay [2] was found to be 7.55 nM; in assay [3], 0.31 nM.
The compound `CC[C@H](C)[C@H](NC(=O)[C@H](Cc1ccccc1)NC(=O)[C@H](CCC(=O)O)NC(=O)[C@H](CCCCN)NC(=O)[C@H](C)NC(=O)[C@H](C)NC(=O)[C@H](CCC(N)=O)NC(=O)CNC(=O)[C@H](CCC(=O)O)NC(=O)[C@H](CC(C)C)NC(=O)[C@H](Cc1ccc(O)cc1)NC(=O)[C@H](CO)NC(=O)[C@H](CO)NC(=O)[C@H](CCCCNC(=O)COCCOCCNC(=O)COCCOCCNC(=O)CC[C@H](NC(=O)CCCCCCCCCCCCCCCCC(=O)O)C(=O)O)NC(=O)[C@H](CC(=O)O)NC(=O)[C@H](CO)NC(=O)[C@@H](NC(=O)[C@H](Cc1ccccc1)NC(=O)[C@@H](NC(=O)CNC(=O)[C@H](CCC(=O)O)NC(=O)C(C)(C)NC(=O)[C@@H](N)Cc1c[nH]cn1)[C@@H](C)O)[C@@H](C)O)C(=O)N[C@@H](C)C(=O)N[C@@H](Cc1c[nH]c2ccccc12)C(=O)N[C@@H](CC(C)C)C(=O)N[C@H](C(=O)N[C@@H](CCCCN)C(=O)NCC(=O)N[C@@H](CCCNC(=N)N)C(=O)NCC(=O)O)C(C)C` gave an EC50 in assay [1] of 9.9 pM. Further, the IC50 is 25.5 nM in assay [2] and 0.5 nM in assay [3].
`CCCCCCCCCCCCCCCC(=O)N[C@@H](CCC(=O)NCCOCCOCC(=O)NCCOCCOCC(=O)NCCOCCOCC(=O)NCCCC[C@H](NC(=O)[C@H](C)NC(=O)[C@H](C)NC(=O)[C@H](CCC(N)=O)NC(=O)CNC(=O)[C@H](CCC(=O)O)NC(=O)[C@H](CC(C)C)NC(=O)[C@H](Cc1ccc(O)cc1)NC(=O)[C@H](CO)NC(=O)[C@H](CO)NC(=O)[C@@H](NC(=O)[C@H](CC(=O)O)NC(=O)[C@H](CO)NC(=O)[C@@H](NC(=O)[C@H](Cc1ccccc1)NC(=O)[C@@H](NC(=O)CNC(=O)[C@H](CCC(=O)O)NC(=O)C(C)(C)NC(=O)[C@@H](N)Cc1c[nH]cn1)[C@@H](C)O)[C@@H](C)O)C(C)C)C(=O)N[C@@H](CCC(=O)O)C(=O)N[C@@H](Cc1ccccc1)C(=O)N[C@H](C(=O)N[C@@H](C)C(=O)N[C@@H](Cc1c[nH]c2ccccc12)C(=O)N[C@@H](CC(C)C)C(=O)N[C@H](C(=O)N[C@@H](CCCNC(=N)N)C(=O)NCC(=O)N[C@@H](CCCNC(=N)N)C(=O)NCC(=O)O)C(C)C)[C@@H](C)CC)C(=O)O`: a half-maximal effect in assay [1] (bhk) (EC50) was put at 4.3 pM. The IC50 in assay [2] (bhk) worked out at 0.22 nM; in assay [3] (bhk) it was 0.03 nM.
`CC[C@H](C)[C@H](NC(=O)[C@H](Cc1ccccc1)NC(=O)[C@H](CCC(=O)O)NC(=O)[C@H](CCCCNC(=O)COCCOCCNC(=O)COCCOCCNC(=O)CCCCCCCCCCCCCCC(=O)O)NC(=O)[C@H](C)NC(=O)[C@H](C)NC(=O)[C@H](CCC(N)=O)NC(=O)CNC(=O)[C@H](CCC(=O)O)NC(=O)[C@H](CC(C)C)NC(=O)[C@H](Cc1ccc(O)cc1)NC(=O)[C@H](CO)NC(=O)[C@H](CO)NC(=O)[C@@H](NC(=O)[C@H](CC(=O)O)NC(=O)[C@H](CO)NC(=O)[C@@H](NC(=O)[C@H](Cc1ccccc1)NC(=O)[C@@H](NC(=O)CNC(=O)[C@H](CCC(=O)O)NC(=O)C(C)(C)NC(=O)[C@@H](N)Cc1c[nH]cn1)[C@@H](C)O)[C@@H](C)O)C(C)C)C(=O)N[C@@H](C)C(=O)N[C@@H](Cc1c[nH]c2ccccc12)C(=O)N[C@@H](CC(C)C)C(=O)N[C@H](C(=O)N[C@@H](CCCNC(=N)N)C(=O)NCC(=O)N[C@@H](CCCNC(=N)N)C(=O)NCC(=O)O)C(C)C` displayed an EC50 in assay [1] of 166 pM. Also, the IC50 was 12.8 nM in assay [2] and 3.25 nM in assay [3].
